Measurements reported in ChEMBL document CHEMBL1154198, “Chemical genetics of Plasmodium falciparum” (Nature, 2010).

Legend:
Plasmodium falciparum [1] = assay: ST_JUDE: Plasmodium falciparum K1 EC50 (uM) as measured by SYBR green dye; format: functional, organism-based
Plasmodium falciparum [2] = assay: ST_JUDE: Plasmodium falciparum 3D7 EC50 (uM) as measured by SYBR green dye; format: functional, organism-based

| SMILES | EC50 (Plasmodium falciparum [1]) [µM] | EC50 (Plasmodium falciparum [2]) [µM] |
| --- | --- | --- |
| Oc1ccc(C(c2ccc(O)cc2)C(Cl)(Cl)Cl)cc1 | 3.6 | 3.95 |
| CC(=O)Nc1ccc(Nc2c3ccccc3nc3ccccc23)cc1 | 1.37 | 2.69 |
| CCCCCOc1ccc(NC2=C(N3CCCC3)C(=O)c3ccccc3C2=O)cc1 | 1.92 | > 15 |
| CCCCOc1ccc(N2C(N)=NC(N)=NC2(C)C)cc1 | > 15 | 2.79 |
| COCCCNc1nc2cc(OC)c(OC)cc2c2nc(-c3ccccc3)nn12 | > 15 | 0.0855 |
| COc1ccc(-c2nonc2NC(=O)c2ccc(C(C)(C)C)cc2)cc1OC | 1.17 | 1.06 |
| Cc1ccc(C2CC(c3cccs3)=NN2C(=O)c2ccc(Br)o2)cc1 (configuration not stated) | > 15 | 0.532 |
| Nc1ccc(-c2nc3cc(Cc4ccc5[nH]c(-c6ccc(N)cc6)nc5c4)ccc3[nH]2)cc1 | 1.13 | 1.08 |
| O=C(Cc1ccccc1)N1CCOc2c(cc(-c3csc4ccccc34)cc2OCCc2ccccn2)C1 | 0.762 | 1.63 |
| CC(=O)N(C)C1=C(N2CCOCC2)C(=O)c2ccccc2C1=O | 4.78 | 2.72 |
| COc1ccc2nc(C)cc(Nc3cccc(Cl)c3)c2c1 | 9.41 | 1.24 |
| Oc1c2c(nc3cc(-c4ccc(Br)cc4)nn13)CCCC2 | 0.632 | > 15 |
| CN1CCN(CCCNC(=O)c2ccc3c(c2)sc2nc(-c4ccccc4)cn23)CC1 | 9.15 | 4.06 |
| Cc1nc2c3cc(F)ccc3n(C)c2s1 | > 15 | > 15 |
| O=C1/C(=C/c2ccc(F)cc2)Oc2c1ccc(O)c2CN1CCCCC1 | 0.469 | 2.03 |
| O=Cc1ccc2noc(-c3ccc(Cl)cc3)c2c1 | > 15 | > 15 |
| COc1ccc(C2C(C(=O)Nc3ccc(OC)cc3OC)c3ccccc3C(=O)N2C)cc1 (configuration not stated) | 4.82 | 4.16 |
| Cc1ccc2ccc(C(Nc3ccccn3)c3ccncc3)c(O)c2n1 (configuration not stated) | > 15 | 6.5 |
| CCCO/C(O)=C1\C(C)=NC2=C(C(=O)CC(c3ccccc3)C2)C1c1cc(Cl)c(O)c(OC)c1 (configuration not stated) | 2.88 | 3.35 |
| Cc1cc(O)nc(-n2nc(C)cc2NC(=O)c2cccc(C(F)(F)F)c2)n1 | 1.5 | > 15 |
| CC(C)(C)c1ccc2c(c1)CN(Cc1ccccc1)CO2 | 0.0523 | 0.239 |
| CCCCn1c(N)c(C#N)c2nc3ccccc3nc21 | 6.01 | 1.52 |

| SMILES | EC50 (Plasmodium falciparum [1]) [µM] | EC50 (Plasmodium falciparum [2]) [µM] |
| --- | --- | --- |
| Cc1cc(C)c2sc(N(Cc3cccnc3)C(=O)c3ccc(C#N)cc3)nc2c1 | 3.94 | 5.77 |
| O=C(Nc1ccc(F)c(F)c1)c1ccc(=O)n(Cc2cccc([N+](=O)[O-])c2)c1 | > 15 | > 15 |
| COc1ccc(C2CC(=O)C3=C(C2)NC(=O)CC3c2ccc(O)cc2)cc1OC (configuration not stated) | 0.977 | 1.66 |
| COc1ccc(Cl)c2sc(N(Cc3cccnc3)C(=O)c3ccc(C(C)=O)cc3)nc12 | 3.86 | 4.06 |
| Cc1ccc(Nc2cc(C)nc(Nc3ccc(NS(=O)(=O)c4ccc(F)cc4)cc3)n2)cc1 | 7.04 | 0.746 |
| O=C(CC1N=C2c3ccccc3N=C(SCc3cccc(F)c3)N2C1=O)NCc1ccco1 (configuration not stated) | 2.01 | 2.31 |
| CN1CCN(c2ccc(NC(=O)c3cccc(I)c3)cc2Cl)CC1 | > 15 | 7.44 |
| CCCCNC(=S)NCCc1c(C)[nH]c2ccccc12 | > 15 | > 15 |
| COc1ccc(N2CCN(C(CNC(=O)CC(C)(C)C)c3ccc4c(c3)OCO4)CC2)cc1 (configuration not stated) | 2.01 | 4.28 |
| O=C(CN(Cc1ccc(Cl)cc1)S(=O)(=O)c1ccccc1)N1CCN(c2ccccc2F)CC1 | 2.13 | 2.91 |
| CC[N+](C)(CC)CCCOc1ccc2c(c1)C(=O)c1cc(OCCC[N+](C)(CC)CC)ccc1-2 | 0.413 | 0.655 |
| CCOc1cc(/C=C/c2ccc3cccc(O)c3n2)ccc1O | > 15 | > 15 |
| COc1ccc(C2NCCc3c2[nH]c2ccccc32)cc1CN1CCN(c2ccc([N+](=O)[O-])cc2)CC1 (configuration not stated) | 3.81 | 3.65 |
| O=C1c2ccccc2C(=O)c2cc(S(=O)(=O)N(CCO)CCO)ccc21 | 3.21 | 5.89 |
| CCS(=O)(=O)c1ccccc1C(=O)Nc1nc(-c2ccccn2)cs1 | 5.14 | 6.53 |
| Cc1ccc(N(CC(=O)NCCSc2ccc(Cl)cc2)S(=O)(=O)c2ccc(F)cc2)cc1 | > 15 | > 15 |
| CC(C)(C)c1ccc(C(=O)Nc2nc3c(s2)CN(Cc2ccccc2)CC3)cc1 | > 15 | > 15 |
| CCCOC(=O)c1cccc(NC(=O)C23CCC(C)(C(=O)O2)C3(C)C)c1 (configuration not stated) | > 15 | > 15 |
| COc1ccc(Nc2cc(C)nc(Nc3ccc(NS(=O)(=O)c4cccc(Cl)c4)cc3)n2)cc1 | > 15 | 2.39 |
| O=C(Nc1ccc(F)c(Cl)c1)Nc1ccc(Cl)c(Cl)c1 | 1.63 | 5.41 |
| COc1ccc(CCNC(=S)Nc2ccccc2SC)cc1OC | 4.3 | 5.2 |
| CCOc1ccc2nc(C)cc(Nc3ccc4c(c3)OCCO4)c2c1 | 9.41 | > 15 |

| SMILES | EC50 (Plasmodium falciparum [1]) [µM] | EC50 (Plasmodium falciparum [2]) [µM] |
| --- | --- | --- |
| CCCCc1ccc2nc(C)c(CN3CCC(C)CC3)c(O)c2c1 | > 15 | > 15 |
| CCOc1cc(C2Nc3cccc4cccc(c34)N2)ccc1O | > 15 | > 15 |
| C#CC[n+]1ccn2cccc2c1C | 0.607 | 1.08 |
| CCOCCCNC(=O)c1cc2c(-c3cccc(OC)c3)nn(C)c2s1 | > 15 | > 15 |
| C=C(C)CNc1nncc(-c2ccccc2C)n1 | > 15 | > 15 |
| Cc1cc(C)c2ccc(N)nc2c1O | 4.81 | 3.86 |
| Cc1cccc(NC2=C(N3CCCCC3)C(=O)c3ccccc3C2=O)c1 | 0.181 | 0.0527 |
| C=CCOc1cccc(C(Nc2cc(C)ccn2)c2ccc3cccnc3c2O)c1 (configuration not stated) | 4.09 | 3.17 |
| CCCC(=O)NC(c1ccc(C(C)C)cc1)c1cc(Cl)c2cccnc2c1O (configuration not stated) | > 15 | > 15 |
| CCOC(=O)c1ccc2nc(C)cc(Nc3ccc(C)c(Cl)c3)c2c1 | > 15 | 1.9 |
| COc1cc(/C=C2/C(=O)NC(=O)N(c3ccc(Cl)cc3)C2=O)cc(Br)c1OC | > 15 | > 15 |
| CCCN1C(=O)c2[nH]nc(-c3c(C)cc(C)cc3O)c2C1c1ccc(OC)cc1 (configuration not stated) | 2.02 | 3.36 |
| Cc1ccccc1OCC(O)Cn1c(=N)n(CCN2CCCCC2)c2ccccc21 (configuration not stated) | 5.4 | 4.76 |
| O=C(NCCN1CCC(Cc2ccccc2)CC1)c1cc(-c2cccnc2)nc2ccccc12 | 0.942 | 1.13 |
| CCOCC(=O)Nc1cc(C(F)(F)F)ccc1Oc1cccc(Br)c1 | > 15 | 0.83 |
| COc1cccc(-c2nc3cc(NC(=O)c4cccc(Cl)c4Cl)ccc3o2)c1 | > 15 | > 15 |
| COc1ccc(C)cc1S(=O)(=O)Nc1ccc(Nc2nc(C)cc(N3CCCC3)n2)cc1 | > 15 | 0.759 |
| O=C(CSc1nccn1-c1ccc([N+](=O)[O-])cc1)N1CCc2ccccc21 | > 15 | > 15 |
| CCCCC(O)(c1ccc(Cl)cc1)C(CN1CCOCC1)c1ccc(Cl)cc1 (configuration not stated) | 1.64 | 4.01 |
| CCOC(=O)c1cnc2c(C)cc(C)cc2c1NCc1cccnc1 | 6.18 | 4.77 |
| Clc1ccccc1Nc1nc(NCc2ccccc2)c2ccccc2n1 | 4.17 | 1.54 |
| Fc1ccc(Nc2nc(NCCN3CCOCC3)nc3c2cnn3-c2ccccc2)cc1 | 6.75 | > 15 |

| SMILES | EC50 (Plasmodium falciparum [1]) [µM] | EC50 (Plasmodium falciparum [2]) [µM] |
| --- | --- | --- |
| CO/C(O)=C1\C(C)=NC2=C(C(=O)CC(c3ccc(OC)c(OC)c3)C2)C1c1cccc(C)c1 (configuration not stated) | 3.86 | 3.69 |
| COc1ccc(Cl)cc1NC(=O)CSc1nc(-c2ccccc2Cl)ns1 | 2.66 | 1.43 |
| COc1ccc(NC(=O)c2c(-c3c(Cl)cccc3Cl)noc2C)c(OC)c1 | 5.43 | > 15 |
| O=C(c1cccc(Cl)c1)N(Cc1cccnc1)c1nc2c(F)cccc2s1 | 6.68 | > 15 |
| CCCOc1ccc(-c2nonc2NC(=O)c2cccc(C)c2)cc1OCCC | 1.05 | > 15 |
| COC(=O)C1C(O)=C2C(=Nc3ccccc3NC2c2ccccc2OC(C)C)CC1C (configuration not stated) | > 15 | > 15 |
| CCCCN(CC)CCNC(=O)c1cc2c(-c3ccccc3F)nn(C)c2s1 | > 15 | 2.07 |
| COc1cccc(NC(=O)C2c3ccccc3C(=O)N(C3CCCC3)C2c2cccs2)c1 (configuration not stated) | 0.474 | 0.45 |
| CCCN(CCC)Cc1c(O)ccc2c(=O)c(Oc3ccc(OC)cc3)c(C(F)(F)F)oc12 | 2.95 | > 15 |
| Cc1ccc2[nH]c(-c3cccc(-c4nc5cc(C)ccc5[nH]4)n3)nc2c1 | 7.6 | 3.23 |
| COC(=O)c1ccc(Nc2nc(NCc3ccco3)c3ccccc3n2)cc1 | 8.54 | 4.89 |
| Cc1cc(C)c2nc(NNC(=O)c3ccc(S(=O)(=O)N(C)C)cc3)sc2c1 | 4.88 | 6.63 |
| O=C(Nc1ccc(Cl)cc1C(=O)Nc1cccc(C(F)(F)F)c1)c1ccco1 | > 15 | > 15 |
| COc1ccc(OC)c(C2CC(=O)C3=C(C2)NC(=O)CC3c2ccc([N+](=O)[O-])cc2)c1 (configuration not stated) | 1.53 | > 15 |
| CCN(CC)c1cc(C)c2cc(NC(=O)c3cccc(F)c3)ccc2n1 | 8.08 | 1.99 |
| CCc1cc2c(=O)c(Oc3ccc(Cl)cc3)coc2cc1OC(C)=O | > 15 | > 15 |
| O=C(Nc1ccc(Cl)cc1)Nc1cc(OCC(F)(F)F)cc(OCC(F)(F)F)c1 | 0.466 | 1.36 |
| Cc1cccc(C)c1OCC(=O)N(Cc1ccc(C(C)C)cc1)Cc1ccco1 | > 15 | 4.79 |
| CCOc1cc(-c2nc(-c3ccc(OC)cc3)c(-c3ccccc3)[nH]2)ccc1O | 2.25 | 1.48 |
| CCCC(=O)NC(c1ccc(N(CC)CC)cc1)c1cc(Cl)c2cccnc2c1O (configuration not stated) | 1.14 | 0.844 |
